{
  "source": "paper PMC4920374",
  "about": "(Bioorganic & medicinal chemistry, 2016)",
  "key": {"[1]": {"system": "KB (epidermoid carcinoma of the nasopharynx)", "assay": "Antiproliferative SRB assay, KB", "assay_type": "cell-based, human"}, "[2]": {"system": "KB-vin (vincristine-resistant KB subline)", "assay": "Antiproliferative SRB assay, KB-vin", "assay_type": "cell-based, human"}, "Mer TK": {"system": "Mer TK", "conditions": "cited from earlier work"}, "[3]": {"system": "A549 (human lung carcinoma)", "assay": "Antiproliferative SRB assay, A549", "assay_type": "cell-based", "conditions": "A549, read-out: GI50 A549"}, "DU145 (prostate cancer)": {"system": "DU145 (prostate cancer)", "assay": "Antiproliferative SRB assay, DU145", "assay_type": "cell-based", "conditions": "Homo sapiens, DU-145, read-out: GI50 DU145"}, "[4]": {"conditions": "paclitaxel reference, values in nM"}},
  "note": "Read-outs that look alike come from different tables or passages of the source.",
  "data": [
    {"compound": "N#Cc1ccc(Nc2nc(NC3CCCC3)c3ccccc3n2)cc1", "note": "[6a, 2-(4-Cyanophenyl)amino-4-(N-cyclopentyl)aminoquinazoline]", "values": [
      {"measurement": "GI50 KB", "setting": "[1]; SRB", "value": ">31300", "unit": "nM"},
      {"measurement": "GI50 KB-vin", "setting": "[2]; SRB", "value": ">31300", "unit": "nM"}
    ]},
    {"compound": "Nc1ccc(Nc2nc(NCCCO)c3ccccc3n2)cc1", "note": "[7b]", "values": [
      {"measurement": "GI50 KB", "setting": "[1]; SRB", "value": 19700, "unit": "nM"},
      {"measurement": "GI50 KB-vin", "setting": "[2]; SRB", "value": 18700, "unit": "nM"}
    ]},
    {"compound": "OCCCNc1nc(Nc2ccc(F)cc2)nc2ccccc12", "note": "[7c, 2-(4-Fluorophenyl)amino-4-(3-hydroxypropyl)aminoquinazoline]", "values": [
      {"measurement": "GI50 KB", "setting": "[1]; SRB", "value": 17100, "unit": "nM"},
      {"measurement": "GI50 KB-vin", "setting": "[2]; SRB", "value": 24200, "unit": "nM"}
    ]},
    {"compound": "CC(C)n1cnc2/c(=N/c3cccc(Cl)c3)nc(NCCO)[nH]c21", "note": "[C-52]", "values": [
      {"measurement": "Mer inhibitory potency", "setting": "Mer TK; literature Mer inhibitors", "value": "weak"}
    ]},
    {"compound": "CC(=O)O[C@H]1C(=O)[C@@]2(C)[C@H]([C@H](OC(=O)c3ccccc3)[C@]3(O)C[C@H](OC(=O)[C@H](O)[C@@H](NC(=O)c4ccccc4)c4ccccc4)C(C)=C1C3(C)C)[C@]1(OC(C)=O)CO[C@@H]1C[C@@H]2O", "note": "[Paclitaxel]", "values": [
      {"measurement": "GI50 KB", "setting": "[1]; [4]", "value": 2.6, "unit": "nM"},
      {"measurement": "GI50 KB-vin", "setting": "[2]; [4]", "value": 948, "unit": "nM"},
      {"measurement": "GI50", "setting": "[3]", "value": 0.0049, "unit": "µM"},
      {"measurement": "GI50", "setting": "DU145 (prostate cancer)", "value": 0.0026, "unit": "µM"}
    ]},
    {"compound": "CCCCNc1ncc2c(-c3ccc(F)cc3)nn(CC3CCC(N)CC3)c2n1", "note": "(stereo not shown) [UNC569]", "values": [
      {"measurement": "Mer inhibitory potency", "setting": "Mer TK", "value": "subnanomolar"}
    ]},
    {"compound": "CCCCNc1ncc(C(=O)NCc2ccc(-n3ccnc3)cc2)c(NC2CCC(O)CC2)n1", "note": "(stereo not shown) [UNC2881]", "values": [
      {"measurement": "Mer inhibitory potency", "setting": "Mer TK", "value": "subnanomolar"}
    ]}
  ]
}
